What all share (format): functional
Holding throughout (conditions): 336 h

In test [1] the test system is Staphylococcus aureus. As to the kind of experiment: Antibacterial activity against Staphylococcus aureus after 2 weeks by broth dilution method.
The test system of test [2] is Mycobacterium tuberculosis. As to the kind of experiment: Antibacterial activity against Mycobacterium tuberculosis H37Rv after 2 weeks by broth dilution method.
Test [3] deals with Staphylococcus aureus. Kind of test: Antibacterial activity against methicillin-resistant Staphylococcus aureus 910 after 2 weeks by broth dilution method.
The next test has as its system Mycobacterium avium. As to the kind of experiment: Antibacterial activity against Mycobacterium avium 724S after 2 weeks by broth dilution method.
For test [4], the system named is Staphylococcus aureus. As to the kind of experiment: Antibacterial activity against methicillin-resistant Staphylococcus aureus 908 after 2 weeks by broth dilution method.
For test [5], the system named is Staphylococcus aureus. As to the kind of experiment: Antibacterial activity against methicillin-resistant Staphylococcus aureus 873 after 2 weeks by broth dilution method.
Test [6] has as its system Staphylococcus aureus. Kind of test: Antibacterial activity against methicillin-resistant Staphylococcus aureus 906 after 2 weeks by broth dilution method.
Test [7] has as its system Mycobacterium tuberculosis. Kind of test: Antimycobacterial activity against Mycobacterium tuberculosis A-3-22 after 2 weeks by broth dilution method.
Test [8] has as its system Mycobacterium tuberculosis. Kind of test: Antimycobacterial activity against Mycobacterium tuberculosis A-3-16 after 2 weeks by broth dilution method.
Test [9] deals with Mycobacterium tuberculosis. As to the kind of experiment: Antimycobacterial activity against Mycobacterium tuberculosis A-2-5 after 2 weeks by broth dilution method.
In test [10] the test system is Mycobacterium tuberculosis. Kind of test: Antimycobacterial activity against Mycobacterium tuberculosis A-3-17 after 2 weeks by broth dilution method.
Test [11] has as its system Mycobacterium tuberculosis. As to the kind of experiment: Antimycobacterial activity against Mycobacterium tuberculosis A-3-9 after 2 weeks by broth dilution method.
Test [12] deals with Mycobacterium tuberculosis. As to the kind of experiment: Antimycobacterial activity against Mycobacterium tuberculosis A-3-1 after 2 weeks by broth dilution method.
Test [13] has as its system Mycobacterium tuberculosis. Kind of test: Antimycobacterial activity against Mycobacterium tuberculosis A-3-12 after 2 weeks by broth dilution method.
Test [14] deals with Mycobacterium tuberculosis. As to the kind of experiment: Antimycobacterial activity against Mycobacterium tuberculosis A-1-2 after 2 weeks by broth dilution method.
In test [15] the test system is Mycobacterium tuberculosis. As to the kind of experiment: Antimycobacterial activity against Mycobacterium tuberculosis A-3-6 after 2 weeks by broth dilution method.
Test [16] concerns Mycobacterium tuberculosis. As to the kind of experiment: Antimycobacterial activity against Mycobacterium tuberculosis A-1-3 after 2 weeks by broth dilution method.
Test [17] has as its system Mycobacterium tuberculosis. As to the kind of experiment: Antimycobacterial activity against Mycobacterium tuberculosis A-3-2 after 2 weeks by broth dilution method.
The test system of test [18] is Mycobacterium tuberculosis. Kind of test: Antimycobacterial activity against Mycobacterium tuberculosis A-1-1 after 2 weeks by broth dilution method.
Test [19] concerns Mycobacterium tuberculosis. Kind of test: Antimycobacterial activity against Mycobacterium tuberculosis A-3-15 after 2 weeks by broth dilution method.
In test [20] the test system is Mycobacterium tuberculosis. Kind of test: Antimycobacterial activity against Mycobacterium tuberculosis A-3-21 after 2 weeks by broth dilution method.
Test [21] deals with Mycobacterium tuberculosis. As to the kind of experiment: Antimycobacterial activity against Mycobacterium tuberculosis A-3-11 after 2 weeks by broth dilution method.
In test [22] the test system is Mycobacterium tuberculosis. As to the kind of experiment: Antimycobacterial activity against Mycobacterium tuberculosis A-3-20 after 2 weeks by broth dilution method.
Test [23] has as its system Mycobacterium tuberculosis. Kind of test: Antimycobacterial activity against Mycobacterium tuberculosis A-3-5 after 2 weeks by broth dilution method.
In test [24] the test system is Mycobacterium tuberculosis. As to the kind of experiment: Antimycobacterial activity against Mycobacterium tuberculosis A-3-19 after 2 weeks by broth dilution method.

Drawing on ChEMBL document CHEMBL1147864, “Synthesis of new sugar derivatives from Stachys sieboldi Miq and antibacterial evaluation against Mycobacterium tuberculosis, Mycobacterium avium, and Staphylococcus aureus” (2007), this text covers MIC for 18 molecules.

Converted amounts (≈) assume the structure as drawn. Bounds are passed on as bounds.

Turning to `CCO[C@@H]1O[C@H](CO[C@H]2O[C@H](CO[C@H]3O[C@H](COC(C)=O)[C@H](OC(C)=O)[C@H](OC(C)=O)[C@H]3OC(C)=O)[C@H](OC(C)=O)[C@H](OC(C)=O)[C@H]2OC(C)=O)[C@@H](OC(C)=O)[C@H](OC(C)=O)[C@H]1OC(C)=O`, the MIC (with Staphylococcus aureus [1]; in [2]) was more than 800 µg/mL in each case.
As for `CCCO[C@@H]1O[C@H](CO[C@H]2O[C@H](CO[C@H]3O[C@H](COC(C)=O)[C@H](OC(C)=O)[C@H](OC(C)=O)[C@H]3OC(C)=O)[C@H](OC(C)=O)[C@H](OC(C)=O)[C@H]2OC(C)=O)[C@@H](OC(C)=O)[C@H](OC(C)=O)[C@H]1OC(C)=O`, the MIC (in the test on Staphylococcus aureus [1]; in [2]) was more than 800 µg/mL each time.
On to `CCCCO[C@@H]1O[C@H](CO[C@H]2O[C@H](CO[C@H]3O[C@H](COC(C)=O)[C@H](OC(C)=O)[C@H](OC(C)=O)[C@H]3OC(C)=O)[C@H](OC(C)=O)[C@H](OC(C)=O)[C@H]2OC(C)=O)[C@@H](OC(C)=O)[C@H](OC(C)=O)[C@H]1OC(C)=O`, for which the minimal inhibitory concentration (MIC) (with Staphylococcus aureus [1]; in test [2]) was more than 800 µg/mL each time.
Consider `OC[C@H](O)[C@@H](O)[C@H](O)[C@H](O)CO[C@H]1O[C@H](CO[C@H]2O[C@H](CO)[C@H](O)[C@H](O)[C@H]2O)[C@H](O)[C@H](O)[C@H]1O`, for which the minimum inhibitory concentration (MIC) (in the test with Staphylococcus aureus [1]; in [2]) was more than 800 µg/mL in each case.
For the molecule `C=CCO[C@@H]1O[C@H](CO[C@H]2O[C@H](CO[C@H]3O[C@H](CO)[C@H](O)[C@H](O)[C@H]3O)[C@H](O)[C@H](O)[C@H]2O)[C@@H](O)[C@H](O)[C@H]1O`, the minimum inhibitory concentration (MIC) was more than 100 µg/mL with Staphylococcus aureus [3]; more than 100 µg/mL in the test on Mycobacterium avium; more than 100 µg/mL with Staphylococcus aureus [4] (read-out: MIC); 100 µg/mL (≈ 184 µM) in the test on Staphylococcus aureus [5]; more than 100 µg/mL against Staphylococcus aureus [1]; more than 100 µg/mL against Staphylococcus aureus [6]. The same molecule returned a minimum inhibitory concentration (MIC) in test [2] of more than 100 µg/mL.
For the molecule `CC(=O)OC[C@H]1O[C@H](OC[C@H]2O[C@H](OC[C@H]3O[C@@H](OC(C)C)[C@H](OC(C)=O)[C@@H](OC(C)=O)[C@@H]3OC(C)=O)[C@H](OC(C)=O)[C@@H](OC(C)=O)[C@H]2OC(C)=O)[C@H](OC(C)=O)[C@@H](OC(C)=O)[C@H]1OC(C)=O`, the MIC (against Staphylococcus aureus [1]; in test [2]) was more than 800 µg/mL each time.
`C=CCO[C@H]1O[C@H](CO[C@H]2O[C@H](CO[C@H]3O[C@H](COC(C)=O)[C@H](OC(C)=O)[C@H](OC(C)=O)[C@H]3OC(C)=O)[C@H](OC(C)=O)[C@H](OC(C)=O)[C@H]2OC(C)=O)[C@@H](OC(C)=O)[C@H](OC(C)=O)[C@H]1OC(C)=O`: the minimum inhibitory concentration (MIC) (against Staphylococcus aureus [1]; in [2]) was more than 800 µg/mL throughout.
Consider `CO[C@@H]1O[C@H](CO[C@H]2O[C@H](CO[C@H]3O[C@H](COC(C)=O)[C@H](OC(C)=O)[C@H](OC(C)=O)[C@H]3OC(C)=O)[C@H](OC(C)=O)[C@H](OC(C)=O)[C@H]2OC(C)=O)[C@@H](OC(C)=O)[C@H](OC(C)=O)[C@H]1OC(C)=O`, for which the MIC (in the test on Staphylococcus aureus [1]; in [2]) was more than 800 µg/mL in each case.
For `NNC(=O)c1ccncc1` [ISONIAZID], the MIC was more than 100 µg/mL with Staphylococcus aureus [3]; 12.5 µg/mL (≈ 91.1 µM) with Mycobacterium avium; more than 100 µg/mL in the test with Staphylococcus aureus [4] (read-out: MIC); more than 100 µg/mL in the test with Staphylococcus aureus [5]; more than 100 µg/mL in the test with Staphylococcus aureus [1]; 0.075 µg/mL (≈ 0.547 µM) in test [2].
Turning to `C=CCO` [ALLYL ALCOHOL], the MIC (against Staphylococcus aureus [1]; in test [2]) was more than 400 µg/mL each time.
With `C#CCO[C@@H]1O[C@H](CO[C@H]2O[C@H](CO[C@H]3O[C@H](COC(C)=O)[C@H](OC(C)=O)[C@H](OC(C)=O)[C@H]3OC(C)=O)[C@H](OC(C)=O)[C@H](OC(C)=O)[C@H]2OC(C)=O)[C@@H](OC(C)=O)[C@H](OC(C)=O)[C@H]1OC(C)=O`, the MIC (with Staphylococcus aureus [1]; in test [2]) was more than 800 µg/mL throughout.
Take `C/C=C/CO[C@@H]1O[C@H](CO[C@H]2O[C@H](CO[C@H]3O[C@H](COC(C)=O)[C@H](OC(C)=O)[C@H](OC(C)=O)[C@H]3OC(C)=O)[C@H](OC(C)=O)[C@H](OC(C)=O)[C@H]2OC(C)=O)[C@@H](OC(C)=O)[C@H](OC(C)=O)[C@H]1OC(C)=O`: the minimal inhibitory concentration (MIC) (against Staphylococcus aureus [1]; in test [2]) was more than 400 µg/mL throughout.
As for `C=CCO[C@@H]1O[C@H](CO[C@H]2O[C@H](CO[C@H]3O[C@H](COC(C)=O)[C@H](OC(C)=O)[C@H](OC(C)=O)[C@H]3OC(C)=O)[C@H](OC(C)=O)[C@H](OC(C)=O)[C@H]2OC(C)=O)[C@@H](OC(C)=O)[C@H](OC(C)=O)[C@H]1OC(C)=O`, the MIC in [7] came out at 3.13 µg/mL (≈ 3.24 µM); with Staphylococcus aureus [3], 15.1 µg/mL (≈ 15.6 µM); in test [8], 6.25 µg/mL (≈ 6.48 µM); in test [9], 12.5 µg/mL (≈ 13 µM); in test [10], 3.13 µg/mL (≈ 3.24 µM); in [11] it was 3.13 µg/mL (≈ 3.24 µM). For the same molecule, the minimum inhibitory concentration (MIC) in [12] is 25 µg/mL (≈ 25.9 µM); in test [13], 6.25 µg/mL (≈ 6.48 µM); in test [14], 6.25 µg/mL (≈ 6.48 µM); in the test on Mycobacterium avium, 3.13 µg/mL (≈ 3.24 µM); in test [15], 6.25 µg/mL (≈ 6.48 µM); in the test with Staphylococcus aureus [4] (read-out: MIC) it was 7.54 µg/mL (≈ 7.81 µM). Besides, the MIC in test [16] turned out to be 6.25 µg/mL (≈ 6.48 µM); in test [17], 25 µg/mL (≈ 25.9 µM); in [18], 6.25 µg/mL (≈ 6.48 µM); in [19] it was 3.13 µg/mL (≈ 3.24 µM); in test [20] it was 6.25 µg/mL (≈ 6.48 µM); in the test on Staphylococcus aureus [5], 3.77 µg/mL (≈ 3.91 µM). Besides, the minimal inhibitory concentration (MIC) with Staphylococcus aureus [1] worked out at 3.13 µg/mL (≈ 3.24 µM); in [21], 3.13 µg/mL (≈ 3.24 µM); in test [22] it was 6.25 µg/mL (≈ 6.48 µM); in test [23], 6.25 µg/mL (≈ 6.48 µM); against Staphylococcus aureus [6], 15.1 µg/mL (≈ 15.6 µM); in [2], 3.13 µg/mL (≈ 3.24 µM). Also, in [24], 3.13 µg/mL (≈ 3.24 µM) was the least that counted as inhibitory (MIC).
Consider `C=CCN=C=S` [ALLYL ISOTHIOCYANATE], for which the MIC (against Staphylococcus aureus [1]; in test [2]) was more than 800 µg/mL throughout.
As for `CO[C@H]1/C=C/O[C@@]2(C)Oc3c(C)c(O)c4c(O)c(c(/C=N/N5CCN(C)CC5)c(O)c4c3C2=O)NC(=O)/C(C)=C\C=C\[C@H](C)[C@H](O)[C@@H](C)[C@@H](O)[C@@H](C)[C@H](OC(C)=O)[C@@H]1C` [RIFAMPIN], the MIC in the test on Staphylococcus aureus [3], in the test on Mycobacterium avium, with Staphylococcus aureus [4], in the test with Staphylococcus aureus [5], in the test with Staphylococcus aureus [1] and against Staphylococcus aureus [6] was 0.004 µg/mL (≈ 0.00486 µM) each time. Besides, the minimal inhibitory concentration (MIC) in [2] was more than 0.008 µg/mL.
`CC(=O)OC[C@H](OC(C)=O)[C@@H](OC(C)=O)[C@H](OC(C)=O)[C@@H](CO[C@H]1O[C@H](CO[C@H]2O[C@H](COC(C)=O)[C@H](OC(C)=O)[C@H](OC(C)=O)[C@H]2OC(C)=O)[C@H](OC(C)=O)[C@H](OC(C)=O)[C@H]1OC(C)=O)OC(C)=O`: the minimal inhibitory concentration (MIC) (with Staphylococcus aureus [1]; in test [2]) was more than 800 µg/mL each time.
For `CC[C@@H](CO)NCCN[C@@H](CC)CO` [ETHAMBUTOL], the minimal inhibitory concentration (MIC) with Staphylococcus aureus [3] was more than 100 µg/mL; against Mycobacterium avium it was 3 µg/mL (≈ 14.7 µM); in the test on Staphylococcus aureus [4] (read-out: MIC), more than 100 µg/mL; against Staphylococcus aureus [5], more than 100 µg/mL; in the test with Staphylococcus aureus [1], more than 100 µg/mL; against Staphylococcus aureus [6] it was more than 100 µg/mL. The molecule further showed a minimal inhibitory concentration (MIC) in test [2] of 1.25 µg/mL (≈ 6.12 µM).
As to `CN[C@@H]1[C@H](O[C@H]2[C@H](O[C@H]3[C@H](O)[C@@H](O)[C@H](N=C(N)N)[C@@H](O)[C@@H]3N=C(N)N)O[C@@H](C)[C@]2(O)C=O)O[C@@H](CO)[C@H](O)[C@H]1O` (stereo in doubt) [STREPTOMYCIN], the MIC in the test with Mycobacterium avium is 0.4 µg/mL (≈ 0.688 µM); in the test with Staphylococcus aureus [5], more than 100 µg/mL; in the test on Staphylococcus aureus [1], 100 µg/mL (≈ 172 µM); in the test with Staphylococcus aureus [6], 100 µg/mL (≈ 172 µM); in test [2], 0.2 µg/mL (≈ 0.344 µM).
